System: submitochondrial electron transport particles (ETP) having competent electron transport enzyme complex I
Experiment: facilitated electron withdrawal bioassay with SOD-depleted submitochondrial electron transport particles (adrenochrome formation, absorbance at 480 nm)
Assay type: biochemical, bovine (beef heart)
Details: for lowest observable effect concentration (LOEC): concentration giving a response three standard deviations above mean control, HEPES buffer pH 7.2, 1.5 mM epinephrine, 0.5 mg ETP, 125 uM NADH, 10 minute incubation; for lowest observable effect concentration (LOEC) / relative potency to induce a prooxidant state (FIG. 4): 0.2 ug per ml antimycin A; for relative potency to induce a prooxidant state (FIG. 4): ranking among the five agents tested, 0 to 10 ug per ml toxicant
Description: The practice of the present invention began with the creation of submitochondrial electron transport particles (ETP) isolated from beef hearts. These are also referred to as submitochondrial particles. The mitochondria were isolated from bovine heart muscle by the method of Blair, supra. The superoxide dismutase-depleted ETP particles were prepared by sonicating the thawed mitochondria for two minutes in a medium containing 0.25M sucrose and 2 mM EDTA, pH 7.5, at a protein concentration of 25 mg per ml. The result was diluted with an equal volume of 0.25M sucrose and adjusted to a pH of 7.5 after which it was centrifuged for 40 minutes at 105,000×g. The resulting ETP particles were washed in ten volumes of 0.25M sucrose and sedimented by centrifugation. After treatment the ETP particles were stored frozen in buffered 0.25M sucrose at a protein concentration of 20 mg per ml.
The test medium contained 50 mM HEPES buffer, 1.5 mM epinephrine and 0.4 uM antimycin. The medium was adjusted to a pH of 7.2 with 5M potassium hydroxide and dispensed in 1.8 ml aliquots into 1-CM path length glass cuvettes. Either aqueous diluent or the test sample was added in a volume of 20-50 ul so that the final concentration ranged between 0 and 100 ug per ml. Following the addition of 0.5 mg of the SOD-depleted ETP particles suspended in a 0.1 ml 50 mM HEPES buffer, the cuvettes were covered with parafilm and inverted three times to mix the contents. First a base line absorbance reading was taken by the spectrophotometer set for 480 nm.
After the base line reading was taken, the reaction was started by adding 50 ul of 5 mM NADH. The final absorbance readings were then taken after a 10 minute incubation at room temperature. The final absorbance readings were used to calculate a lowest observable effect concentration (LOEC) for each of the chemicals tested. […] It is intended that the LOEC value be analogous to the limited detection value used for environmental samples subject to conventional analysis.
All experiments summarized in this table and in FIG. 4 were conducted with 2 ml HEPES buffer, a pH of 7.2, 1.5 mM epinephrine, 0.2 ug per ml antimycin A, 0.5 mg ETP, 125 uM NADH and 0 to 10 ug per ml of the test toxicant.

SMILES	lowest observable effect concentration (LOEC) [µg/L]	effect of antimycin A or rotenone on the response to paraquat (FIG. 3) (with vs without 0.2 ug per ml antimycin A or 0.2 ug per ml rotenone, absorbance at 480 nm)	relative potency to induce a prooxidant state (FIG. 4)
C[n+]1ccc(-c2cc[n+](C)cc2)cc1 [Paraquat]	3500	increases the rate at which paraquat can draw electrons from the electron transport cascade	–
c1cc[n+]2c(c1)-c1cccc[n+]1CC2 [Diquat]	1600	–	–
O=[N+]([O-])c1cc[n+]([O-])c2ccccc12 [4-Nitroquinoline-N-oxide]	1600	–	–
O=S(=O)(O)c1ccccc1N=Nc1c(S(=O)(=O)O)cc2cc(S(=O)(=O)O)c(N=Nc3ccccc3S(=O)(=O)O)c(O)c2c1O [Sulfonazo III]	320	–	strongest inducer of the prooxidant states
COc1cccc2c1C(=O)c1c(O)c3c(c(O)c1C2=O)C[C@@](O)(C(=O)CO)C[C@@H]3O[C@H]1C[C@H](N)[C@H](O)[C@H](C)O1 [Adriamycin]	6300	–	weakest
